The supplement of paper PMC4862054

System: DU-4475
Assay: drug sensitivity score (DSS), CellTiter-Glo (DSS (AUC-based score)); higher = stronger drug effect (viability inhibition or cytotoxicity); extreme values may be limits of the assay
Details: incubation time: 72 h
How it was run: (§1)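 Breast cancer cell lines, seeded as 20 µl suspension, were incubated 72 h with compound in 384-well plates at 5 concentrations in 10-fold steps over a 10,000-fold range set for each compound. Fluorescence from CellTox Green was read at 485/520 nm before CellTiter-Glo luminescence, which was read after 10 min at room temperature. Every plate was normalised to 0.1 % DMSO and a positive kill control, and the drug sensitivity score was taken from the area under the fitted dose-response curve.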

Compound | drug sensitivity score
C=CC(=O)N1CCC[C@@H](n2nc(-c3ccc(Oc4ccccc4)cc3)c3c(N)ncnc32)C1 [Ibrutinib] | 0
CNC(=O)c1cc(Oc2ccc(NC(=O)Nc3cc(C(C)(C)C)nn3-c3ccc4ncccc4c3)c(F)c2)ccn1 [Rebastinib] | 0
O=C(O)C1(C(=O)O)CCC1.[NH2-].[NH2-].[Pt+2] [Carboplatin] | 0
N#Cc1ccc(C(c2ccc(C#N)cc2)n2cncn2)cc1 [Letrozole] | 0
O=C(O)CCCCC(CCSCc1ccccc1)SCc1ccccc1 (configuration not stated) [CPI-613] | 0
CCCS(=O)(=O)Nc1ccc(F)c(C(=O)c2c[nH]c3ncc(-c4ccc(Cl)cc4)cc23)c1F [Vemurafenib] | 14.1
COc1cc2c(Oc3ccc4[nH]c(C)cc4c3F)ncnc2cc1OCCCN1CCCC1 [Cediranib] | 0
O=C(/C=C/c1cccnc1)NCCCCC1CCN(C(=O)c2ccccc2)CC1 [Daporinad] | 25.2
Nc1nc2[nH]cc(CCc3ccc(C(=O)N[C@@H](CCC(=O)O)C(=O)O)cc3)c2c(=O)[nH]1 [Pemetrexed] | 0
C[C@H]1C[C@@H]2[C@H]([C@@H](O)C[C@@]3(C)[C@H]2CC[C@]3(O)C(=O)CO)[C@@]2(C)C=CC(=O)C=C12 [Methylprednisolone] | 0
Oc1ncc(N(CCCl)CCCl)c(O)n1 [Uracil mustard] | 0
Cc1cnc(NC(=O)Nc2cc(Br)c(C)cc2OC[C@@H]2CNCCO2)cn1 [Rabusertib] | 0
O=C(Cc1ccc(-c2ccc(OCCN3CCOCC3)cc2)cn1)NCc1ccccc1 [KX2-391] | 15.2

System: CAL-148
Assay: as above
Details: incubation time: 72 h
How it was run: as §1

Compound | drug sensitivity score
C=CC(=O)N1CCC[C@@H](n2nc(-c3ccc(Oc4ccccc4)cc3)c3c(N)ncnc32)C1 [Ibrutinib] | 0
CNC(=O)c1cc(Oc2ccc(NC(=O)Nc3cc(C(C)(C)C)nn3-c3ccc4ncccc4c3)c(F)c2)ccn1 [Rebastinib] | 0
O=C(O)C1(C(=O)O)CCC1.[NH2-].[NH2-].[Pt+2] [Carboplatin] | 0
N#Cc1ccc(C(c2ccc(C#N)cc2)n2cncn2)cc1 [Letrozole] | 0
O=C(O)CCCCC(CCSCc1ccccc1)SCc1ccccc1 (configuration not stated) [CPI-613] | 0
CCCS(=O)(=O)Nc1ccc(F)c(C(=O)c2c[nH]c3ncc(-c4ccc(Cl)cc4)cc23)c1F [Vemurafenib] | 0
COc1cc2c(Oc3ccc4[nH]c(C)cc4c3F)ncnc2cc1OCCCN1CCCC1 [Cediranib] | 0
O=C(/C=C/c1cccnc1)NCCCCC1CCN(C(=O)c2ccccc2)CC1 [Daporinad] | 6.26
Nc1nc2[nH]cc(CCc3ccc(C(=O)N[C@@H](CCC(=O)O)C(=O)O)cc3)c2c(=O)[nH]1 [Pemetrexed] | 0
C[C@H]1C[C@@H]2[C@H]([C@@H](O)C[C@@]3(C)[C@H]2CC[C@]3(O)C(=O)CO)[C@@]2(C)C=CC(=O)C=C12 [Methylprednisolone] | 0
Oc1ncc(N(CCCl)CCCl)c(O)n1 [Uracil mustard] | 0
Cc1cnc(NC(=O)Nc2cc(Br)c(C)cc2OC[C@@H]2CNCCO2)cn1 [Rabusertib] | 0
O=C(Cc1ccc(-c2ccc(OCCN3CCOCC3)cc2)cn1)NCc1ccccc1 [KX2-391] | 16.9

System: Hs578T
Assay: as above
Details: incubation time: 72 h
How it was run: as §1

Compound | drug sensitivity score
C=CC(=O)N1CCC[C@@H](n2nc(-c3ccc(Oc4ccccc4)cc3)c3c(N)ncnc32)C1 [Ibrutinib] | 0
CNC(=O)c1cc(Oc2ccc(NC(=O)Nc3cc(C(C)(C)C)nn3-c3ccc4ncccc4c3)c(F)c2)ccn1 [Rebastinib] | 0
O=C(O)C1(C(=O)O)CCC1.[NH2-].[NH2-].[Pt+2] [Carboplatin] | 0
N#Cc1ccc(C(c2ccc(C#N)cc2)n2cncn2)cc1 [Letrozole] | 0
O=C(O)CCCCC(CCSCc1ccccc1)SCc1ccccc1 (configuration not stated) [CPI-613] | 0
CCCS(=O)(=O)Nc1ccc(F)c(C(=O)c2c[nH]c3ncc(-c4ccc(Cl)cc4)cc23)c1F [Vemurafenib] | 0
COc1cc2c(Oc3ccc4[nH]c(C)cc4c3F)ncnc2cc1OCCCN1CCCC1 [Cediranib] | 0
O=C(/C=C/c1cccnc1)NCCCCC1CCN(C(=O)c2ccccc2)CC1 [Daporinad] | 26.8
Nc1nc2[nH]cc(CCc3ccc(C(=O)N[C@@H](CCC(=O)O)C(=O)O)cc3)c2c(=O)[nH]1 [Pemetrexed] | 23.6
C[C@H]1C[C@@H]2[C@H]([C@@H](O)C[C@@]3(C)[C@H]2CC[C@]3(O)C(=O)CO)[C@@]2(C)C=CC(=O)C=C12 [Methylprednisolone] | 0
Oc1ncc(N(CCCl)CCCl)c(O)n1 [Uracil mustard] | 0
Cc1cnc(NC(=O)Nc2cc(Br)c(C)cc2OC[C@@H]2CNCCO2)cn1 [Rabusertib] | 1.2
O=C(Cc1ccc(-c2ccc(OCCN3CCOCC3)cc2)cn1)NCc1ccccc1 [KX2-391] | 23.2

System: HCC1143
Assay: as above
Details: incubation time: 72 h
How it was run: as §1

Compound | drug sensitivity score
C=CC(=O)N1CCC[C@@H](n2nc(-c3ccc(Oc4ccccc4)cc3)c3c(N)ncnc32)C1 [Ibrutinib] | 0
CNC(=O)c1cc(Oc2ccc(NC(=O)Nc3cc(C(C)(C)C)nn3-c3ccc4ncccc4c3)c(F)c2)ccn1 [Rebastinib] | 0
O=C(O)C1(C(=O)O)CCC1.[NH2-].[NH2-].[Pt+2] [Carboplatin] | 0
N#Cc1ccc(C(c2ccc(C#N)cc2)n2cncn2)cc1 [Letrozole] | 0
O=C(O)CCCCC(CCSCc1ccccc1)SCc1ccccc1 (configuration not stated) [CPI-613] | 0
CCCS(=O)(=O)Nc1ccc(F)c(C(=O)c2c[nH]c3ncc(-c4ccc(Cl)cc4)cc23)c1F [Vemurafenib] | 0
COc1cc2c(Oc3ccc4[nH]c(C)cc4c3F)ncnc2cc1OCCCN1CCCC1 [Cediranib] | 0
O=C(/C=C/c1cccnc1)NCCCCC1CCN(C(=O)c2ccccc2)CC1 [Daporinad] | 22.2
Nc1nc2[nH]cc(CCc3ccc(C(=O)N[C@@H](CCC(=O)O)C(=O)O)cc3)c2c(=O)[nH]1 [Pemetrexed] | 0
C[C@H]1C[C@@H]2[C@H]([C@@H](O)C[C@@]3(C)[C@H]2CC[C@]3(O)C(=O)CO)[C@@]2(C)C=CC(=O)C=C12 [Methylprednisolone] | 0
Oc1ncc(N(CCCl)CCCl)c(O)n1 [Uracil mustard] | 0
Cc1cnc(NC(=O)Nc2cc(Br)c(C)cc2OC[C@@H]2CNCCO2)cn1 [Rabusertib] | 0
O=C(Cc1ccc(-c2ccc(OCCN3CCOCC3)cc2)cn1)NCc1ccccc1 [KX2-391] | 14.7

System: HCC1599
Assay: as above
Details: incubation time: 72 h
How it was run: as §1

Compound | drug sensitivity score
C=CC(=O)N1CCC[C@@H](n2nc(-c3ccc(Oc4ccccc4)cc3)c3c(N)ncnc32)C1 [Ibrutinib] | 0
CNC(=O)c1cc(Oc2ccc(NC(=O)Nc3cc(C(C)(C)C)nn3-c3ccc4ncccc4c3)c(F)c2)ccn1 [Rebastinib] | 0
O=C(O)C1(C(=O)O)CCC1.[NH2-].[NH2-].[Pt+2] [Carboplatin] | 0
N#Cc1ccc(C(c2ccc(C#N)cc2)n2cncn2)cc1 [Letrozole] | 0
O=C(O)CCCCC(CCSCc1ccccc1)SCc1ccccc1 (configuration not stated) [CPI-613] | 0
CCCS(=O)(=O)Nc1ccc(F)c(C(=O)c2c[nH]c3ncc(-c4ccc(Cl)cc4)cc23)c1F [Vemurafenib] | 0
COc1cc2c(Oc3ccc4[nH]c(C)cc4c3F)ncnc2cc1OCCCN1CCCC1 [Cediranib] | 0
O=C(/C=C/c1cccnc1)NCCCCC1CCN(C(=O)c2ccccc2)CC1 [Daporinad] | 29.4
Nc1nc2[nH]cc(CCc3ccc(C(=O)N[C@@H](CCC(=O)O)C(=O)O)cc3)c2c(=O)[nH]1 [Pemetrexed] | 0
C[C@H]1C[C@@H]2[C@H]([C@@H](O)C[C@@]3(C)[C@H]2CC[C@]3(O)C(=O)CO)[C@@]2(C)C=CC(=O)C=C12 [Methylprednisolone] | 0
Oc1ncc(N(CCCl)CCCl)c(O)n1 [Uracil mustard] | 0
Cc1cnc(NC(=O)Nc2cc(Br)c(C)cc2OC[C@@H]2CNCCO2)cn1 [Rabusertib] | 1.93
O=C(Cc1ccc(-c2ccc(OCCN3CCOCC3)cc2)cn1)NCc1ccccc1 [KX2-391] | 23.8

System: MDA-MB-453
Assay: as above
Details: incubation time: 72 h
How it was run: as §1

Compound | drug sensitivity score
C=CC(=O)N1CCC[C@@H](n2nc(-c3ccc(Oc4ccccc4)cc3)c3c(N)ncnc32)C1 [Ibrutinib] | 5.93
CNC(=O)c1cc(Oc2ccc(NC(=O)Nc3cc(C(C)(C)C)nn3-c3ccc4ncccc4c3)c(F)c2)ccn1 [Rebastinib] | 0
O=C(O)C1(C(=O)O)CCC1.[NH2-].[NH2-].[Pt+2] [Carboplatin] | 0
N#Cc1ccc(C(c2ccc(C#N)cc2)n2cncn2)cc1 [Letrozole] | 0
O=C(O)CCCCC(CCSCc1ccccc1)SCc1ccccc1 (configuration not stated) [CPI-613] | 0
CCCS(=O)(=O)Nc1ccc(F)c(C(=O)c2c[nH]c3ncc(-c4ccc(Cl)cc4)cc23)c1F [Vemurafenib] | 0
COc1cc2c(Oc3ccc4[nH]c(C)cc4c3F)ncnc2cc1OCCCN1CCCC1 [Cediranib] | 0
O=C(/C=C/c1cccnc1)NCCCCC1CCN(C(=O)c2ccccc2)CC1 [Daporinad] | 26.8
Nc1nc2[nH]cc(CCc3ccc(C(=O)N[C@@H](CCC(=O)O)C(=O)O)cc3)c2c(=O)[nH]1 [Pemetrexed] | 0
C[C@H]1C[C@@H]2[C@H]([C@@H](O)C[C@@]3(C)[C@H]2CC[C@]3(O)C(=O)CO)[C@@]2(C)C=CC(=O)C=C12 [Methylprednisolone] | 0
Oc1ncc(N(CCCl)CCCl)c(O)n1 [Uracil mustard] | 0
Cc1cnc(NC(=O)Nc2cc(Br)c(C)cc2OC[C@@H]2CNCCO2)cn1 [Rabusertib] | 2.1
O=C(Cc1ccc(-c2ccc(OCCN3CCOCC3)cc2)cn1)NCc1ccccc1 [KX2-391] | 9

System: CAL-120
Assay: as above
Details: incubation time: 72 h
How it was run: as §1

Compound | drug sensitivity score
C=CC(=O)N1CCC[C@@H](n2nc(-c3ccc(Oc4ccccc4)cc3)c3c(N)ncnc32)C1 [Ibrutinib] | 0
CNC(=O)c1cc(Oc2ccc(NC(=O)Nc3cc(C(C)(C)C)nn3-c3ccc4ncccc4c3)c(F)c2)ccn1 [Rebastinib] | 2.56
O=C(O)C1(C(=O)O)CCC1.[NH2-].[NH2-].[Pt+2] [Carboplatin] | 0
N#Cc1ccc(C(c2ccc(C#N)cc2)n2cncn2)cc1 [Letrozole] | 0
O=C(O)CCCCC(CCSCc1ccccc1)SCc1ccccc1 (configuration not stated) [CPI-613] | 0
CCCS(=O)(=O)Nc1ccc(F)c(C(=O)c2c[nH]c3ncc(-c4ccc(Cl)cc4)cc23)c1F [Vemurafenib] | 0
COc1cc2c(Oc3ccc4[nH]c(C)cc4c3F)ncnc2cc1OCCCN1CCCC1 [Cediranib] | 0
O=C(/C=C/c1cccnc1)NCCCCC1CCN(C(=O)c2ccccc2)CC1 [Daporinad] | 20.9
Nc1nc2[nH]cc(CCc3ccc(C(=O)N[C@@H](CCC(=O)O)C(=O)O)cc3)c2c(=O)[nH]1 [Pemetrexed] | 1.52
